Assays:
Experiment in all cases: Eurofins kinase selectivity profile against 380 other human recombinant kinases (Table S2)
Format in all cases: biochemical
[1] = biological target: T1, 380 human recombinant protein kinases (Homo sapiens, UniProt Q07002); details: CDK18/cyclinY(h), read-out: Inhibition rate
T1 construct: purchased Eurofins (Celle Lévescault)
Outline: (§1)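 Off-target profiling: one compound assayed by a commercial provider over 380 recombinant human protein kinases at various concentrations.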

[2] = biological target: T2, 380 human recombinant protein kinases (Homo sapiens, UniProt Q15208); details: NDR1(h), read-out: Inhibition rate
T2 construct: purchased Eurofins (Celle Lévescault)
Outline: as §1

[3] = biological target: T3, 380 human recombinant protein kinases (Homo sapiens, UniProt Q2M2I8); details: AAK1(h), read-out: Inhibition rate
T3 construct: purchased Eurofins (Celle Lévescault)
Outline: as §1

[4] = biological target: T4, 380 human recombinant protein kinases (Homo sapiens, UniProt Q6DT37); details: MRCKγ(h), read-out: Inhibition rate
T4 construct: purchased Eurofins (Celle Lévescault)
Outline: as §1

[5] = biological target: T5, 380 human recombinant protein kinases (Homo sapiens, UniProt Q9H2K8); details: TAO3(h), read-out: Inhibition rate (%)
T5 construct: purchased Eurofins (Celle Lévescault)
T5 sequence (Q9H2K8 1-898): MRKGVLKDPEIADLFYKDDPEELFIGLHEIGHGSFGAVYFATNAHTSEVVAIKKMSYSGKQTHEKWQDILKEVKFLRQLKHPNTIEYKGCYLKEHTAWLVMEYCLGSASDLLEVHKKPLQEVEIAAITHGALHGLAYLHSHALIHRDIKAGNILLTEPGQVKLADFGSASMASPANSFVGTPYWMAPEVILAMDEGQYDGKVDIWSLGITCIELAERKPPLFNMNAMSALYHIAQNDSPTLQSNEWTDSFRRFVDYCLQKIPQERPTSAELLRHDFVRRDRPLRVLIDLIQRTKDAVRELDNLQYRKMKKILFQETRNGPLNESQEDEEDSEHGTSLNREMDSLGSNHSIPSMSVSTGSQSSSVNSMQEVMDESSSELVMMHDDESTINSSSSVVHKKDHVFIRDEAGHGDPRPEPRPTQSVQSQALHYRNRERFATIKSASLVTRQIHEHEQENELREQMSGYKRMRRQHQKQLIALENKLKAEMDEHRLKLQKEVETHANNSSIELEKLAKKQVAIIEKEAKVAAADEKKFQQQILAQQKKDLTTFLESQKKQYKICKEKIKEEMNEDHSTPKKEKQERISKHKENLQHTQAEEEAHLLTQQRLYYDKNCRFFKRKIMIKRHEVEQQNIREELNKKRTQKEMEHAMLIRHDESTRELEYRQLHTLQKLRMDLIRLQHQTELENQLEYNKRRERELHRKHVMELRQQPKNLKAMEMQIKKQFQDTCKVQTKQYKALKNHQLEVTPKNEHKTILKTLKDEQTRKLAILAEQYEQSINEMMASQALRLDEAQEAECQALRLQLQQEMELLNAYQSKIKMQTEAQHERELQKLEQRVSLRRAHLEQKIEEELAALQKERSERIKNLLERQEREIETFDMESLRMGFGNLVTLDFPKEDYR
Outline: as §1

[6] = biological target: T6, 380 human recombinant protein kinases (Homo sapiens, UniProt Q9UHD2); details: TBK1(h), read-out: Inhibition rate (%)
T6 construct: purchased Eurofins (Celle Lévescault)
T6 sequence (Q9UHD2 1-729): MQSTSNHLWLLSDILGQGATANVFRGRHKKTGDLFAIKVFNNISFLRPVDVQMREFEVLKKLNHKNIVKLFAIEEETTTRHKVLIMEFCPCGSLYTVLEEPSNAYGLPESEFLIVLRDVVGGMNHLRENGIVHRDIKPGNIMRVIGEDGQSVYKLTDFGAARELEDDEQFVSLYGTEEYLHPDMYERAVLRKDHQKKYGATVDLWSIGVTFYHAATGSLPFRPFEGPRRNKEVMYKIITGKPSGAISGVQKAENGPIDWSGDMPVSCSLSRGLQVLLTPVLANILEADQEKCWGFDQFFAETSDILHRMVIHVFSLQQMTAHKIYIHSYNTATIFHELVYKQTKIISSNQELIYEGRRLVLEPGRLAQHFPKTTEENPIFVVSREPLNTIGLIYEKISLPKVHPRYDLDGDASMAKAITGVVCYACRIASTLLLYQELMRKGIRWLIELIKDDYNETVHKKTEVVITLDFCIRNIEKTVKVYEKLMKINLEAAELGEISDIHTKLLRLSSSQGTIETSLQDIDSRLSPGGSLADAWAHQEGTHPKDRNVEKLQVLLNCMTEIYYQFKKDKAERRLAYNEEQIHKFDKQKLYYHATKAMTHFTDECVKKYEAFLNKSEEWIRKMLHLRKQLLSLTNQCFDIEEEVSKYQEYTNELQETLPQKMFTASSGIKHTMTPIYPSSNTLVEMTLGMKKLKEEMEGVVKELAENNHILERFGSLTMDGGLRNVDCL
Outline: as §1

T3 sequence (Q2M2I8 whole entry): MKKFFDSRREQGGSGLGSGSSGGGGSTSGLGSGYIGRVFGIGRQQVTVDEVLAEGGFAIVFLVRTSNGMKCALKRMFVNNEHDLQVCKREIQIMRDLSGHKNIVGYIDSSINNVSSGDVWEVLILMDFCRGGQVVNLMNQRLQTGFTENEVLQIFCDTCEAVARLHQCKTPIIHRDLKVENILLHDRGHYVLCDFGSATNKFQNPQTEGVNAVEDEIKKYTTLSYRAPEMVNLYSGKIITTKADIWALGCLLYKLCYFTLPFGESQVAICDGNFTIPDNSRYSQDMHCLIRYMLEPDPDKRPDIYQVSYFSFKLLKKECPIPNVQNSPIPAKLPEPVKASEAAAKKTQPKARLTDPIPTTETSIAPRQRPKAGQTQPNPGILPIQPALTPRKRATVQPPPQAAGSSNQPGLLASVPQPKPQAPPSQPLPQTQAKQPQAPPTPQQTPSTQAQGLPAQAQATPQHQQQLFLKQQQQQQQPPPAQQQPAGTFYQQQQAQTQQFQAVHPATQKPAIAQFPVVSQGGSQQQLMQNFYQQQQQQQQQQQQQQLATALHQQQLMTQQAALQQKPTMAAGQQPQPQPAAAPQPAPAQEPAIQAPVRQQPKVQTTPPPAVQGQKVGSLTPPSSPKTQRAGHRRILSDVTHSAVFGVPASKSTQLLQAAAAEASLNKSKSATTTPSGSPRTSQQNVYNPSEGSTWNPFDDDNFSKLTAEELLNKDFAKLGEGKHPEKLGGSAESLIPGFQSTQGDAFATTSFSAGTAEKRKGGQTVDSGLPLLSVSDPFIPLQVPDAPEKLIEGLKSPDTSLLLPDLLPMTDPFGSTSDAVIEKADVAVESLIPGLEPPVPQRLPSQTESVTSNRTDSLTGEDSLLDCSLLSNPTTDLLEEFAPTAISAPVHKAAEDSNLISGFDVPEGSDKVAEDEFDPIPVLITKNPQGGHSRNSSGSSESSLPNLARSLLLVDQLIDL
T1 sequence (Q07002 whole entry): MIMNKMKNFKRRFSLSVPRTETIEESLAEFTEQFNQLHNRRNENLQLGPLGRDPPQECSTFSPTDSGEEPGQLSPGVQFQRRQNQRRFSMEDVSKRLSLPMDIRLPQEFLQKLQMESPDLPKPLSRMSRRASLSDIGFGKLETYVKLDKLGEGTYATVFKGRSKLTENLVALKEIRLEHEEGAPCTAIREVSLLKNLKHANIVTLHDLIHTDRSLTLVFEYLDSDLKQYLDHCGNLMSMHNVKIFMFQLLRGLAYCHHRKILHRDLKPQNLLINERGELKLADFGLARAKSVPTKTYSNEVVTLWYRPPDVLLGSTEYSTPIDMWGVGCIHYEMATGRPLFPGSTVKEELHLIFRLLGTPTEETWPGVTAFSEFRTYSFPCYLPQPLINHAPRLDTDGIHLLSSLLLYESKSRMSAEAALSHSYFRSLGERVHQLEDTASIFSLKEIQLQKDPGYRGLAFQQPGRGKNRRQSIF
T4 sequence (Q6DT37 whole entry): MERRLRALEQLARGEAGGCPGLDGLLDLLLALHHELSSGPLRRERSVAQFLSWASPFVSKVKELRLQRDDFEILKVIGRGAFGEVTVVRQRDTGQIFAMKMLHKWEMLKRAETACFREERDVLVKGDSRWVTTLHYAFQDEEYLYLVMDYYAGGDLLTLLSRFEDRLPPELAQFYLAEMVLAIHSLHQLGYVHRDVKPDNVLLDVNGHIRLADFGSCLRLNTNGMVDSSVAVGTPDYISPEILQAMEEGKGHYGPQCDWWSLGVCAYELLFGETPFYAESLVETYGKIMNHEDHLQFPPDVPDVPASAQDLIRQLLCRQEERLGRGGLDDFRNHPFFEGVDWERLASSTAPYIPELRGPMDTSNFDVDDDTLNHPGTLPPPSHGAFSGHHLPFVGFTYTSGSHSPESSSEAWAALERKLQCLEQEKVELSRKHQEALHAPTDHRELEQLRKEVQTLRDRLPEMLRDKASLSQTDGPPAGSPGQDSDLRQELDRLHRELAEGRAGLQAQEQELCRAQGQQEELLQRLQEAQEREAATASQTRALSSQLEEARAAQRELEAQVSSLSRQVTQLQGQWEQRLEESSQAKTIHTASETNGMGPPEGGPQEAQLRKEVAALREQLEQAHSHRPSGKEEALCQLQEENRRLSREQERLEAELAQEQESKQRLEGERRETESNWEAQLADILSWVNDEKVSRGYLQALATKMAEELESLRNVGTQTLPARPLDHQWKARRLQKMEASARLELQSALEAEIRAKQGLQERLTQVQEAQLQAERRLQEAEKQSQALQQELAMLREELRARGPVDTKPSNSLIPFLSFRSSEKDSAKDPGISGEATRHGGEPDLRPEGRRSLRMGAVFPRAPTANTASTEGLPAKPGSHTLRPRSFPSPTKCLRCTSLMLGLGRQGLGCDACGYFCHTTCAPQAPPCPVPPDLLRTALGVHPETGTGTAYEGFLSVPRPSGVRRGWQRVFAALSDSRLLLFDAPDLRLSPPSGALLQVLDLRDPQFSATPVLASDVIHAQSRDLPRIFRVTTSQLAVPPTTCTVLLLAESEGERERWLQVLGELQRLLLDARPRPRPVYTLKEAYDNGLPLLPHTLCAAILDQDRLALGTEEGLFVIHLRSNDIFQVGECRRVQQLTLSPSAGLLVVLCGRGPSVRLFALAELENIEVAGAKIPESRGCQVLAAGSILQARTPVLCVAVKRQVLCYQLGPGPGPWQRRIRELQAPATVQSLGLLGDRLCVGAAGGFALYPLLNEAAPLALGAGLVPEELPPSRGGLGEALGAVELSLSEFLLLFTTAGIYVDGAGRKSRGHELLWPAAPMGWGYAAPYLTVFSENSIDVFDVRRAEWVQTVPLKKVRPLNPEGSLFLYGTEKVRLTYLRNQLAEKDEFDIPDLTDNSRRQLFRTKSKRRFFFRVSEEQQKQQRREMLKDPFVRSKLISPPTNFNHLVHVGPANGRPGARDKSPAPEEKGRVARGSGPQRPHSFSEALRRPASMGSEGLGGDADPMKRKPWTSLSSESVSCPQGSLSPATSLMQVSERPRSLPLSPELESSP
T2 sequence (Q15208 whole entry): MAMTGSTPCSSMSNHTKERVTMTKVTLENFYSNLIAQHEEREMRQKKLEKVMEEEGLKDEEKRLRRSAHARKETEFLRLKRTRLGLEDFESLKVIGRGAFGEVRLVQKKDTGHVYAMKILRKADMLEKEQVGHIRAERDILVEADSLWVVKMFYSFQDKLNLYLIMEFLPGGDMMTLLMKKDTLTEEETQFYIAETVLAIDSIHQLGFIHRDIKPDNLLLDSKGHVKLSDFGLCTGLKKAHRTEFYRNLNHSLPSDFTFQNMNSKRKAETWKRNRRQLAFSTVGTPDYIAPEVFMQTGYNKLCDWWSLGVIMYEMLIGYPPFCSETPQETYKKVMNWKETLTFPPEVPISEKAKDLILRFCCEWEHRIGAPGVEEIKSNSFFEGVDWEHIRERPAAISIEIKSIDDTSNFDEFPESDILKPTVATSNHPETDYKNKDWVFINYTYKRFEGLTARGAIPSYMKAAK

For `C=CC(=O)Nc1cc(-c2cc(-c3cc4c([nH]3)CCNC4=O)ccn2)ccc1OC(F)(F)F` [compound 11], the inhibition at 0.01 µM ([1]; 10 nM) was -5%, the inhibition at 0.1 µM ([1]; 100 nM) was 2% and the inhibition at 1 µM ([1]; 1000 nM) was -3%. It also gave an inhibition at 0.01 µM ([2]; 10 nM) of -17%, an inhibition at 0.1 µM ([2]; 100 nM) of -14% and an inhibition at 1 µM ([2]; 1000 nM) of -12%. The inhibition at 0.01 µM ([3]; 10 nM) was -1%, the inhibition at 0.1 µM ([3]; 100 nM) was 11% and the inhibition at 1 µM ([3]; 1000 nM) was 39%. It also gave an inhibition at 0.01 µM ([4]; 10 nM) of -13%, an inhibition at 0.1 µM ([4]; 100 nM) of 2% and an inhibition at 1 µM ([4]; 1000 nM) of 12%. The inhibition at 0.01 µM ([5]; 10 nM) was -4%, the inhibition at 0.1 µM ([5]; 100 nM) was 0% and the inhibition at 1 µM ([5]; 1000 nM) was 7%. It also gave an inhibition at 0.01 µM ([6]; 10 nM) of 1%, an inhibition at 0.1 µM ([6]; 100 nM) of -13% and an inhibition at 1 µM ([6]; 1000 nM) of -7%.

— article PMC11233931, “Remodeling tumor‐associated macrophage for anti‐cancer effects by rational design of irreversible inhibition of mitogen‐activated protein kinase‐activated protein kinase 2” (MedComm, 2024)
